Experimental data published in patent publication US11207379B2, “Peptides with anti-cancer activity” (IDP DISCOVERY PHARMA, S.L., priority 2016, dated 2021).

Legend:
[1] = molecular target: HL-60, promyeloblast (acute myelocytic leukemia, AML); assay: Viability assay (MTT, Alamar Blue, hexosaminidase), 72 h; format: cell-based; conditions: HL-60 cells, read-out: EC50
Procedure, shortened: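 HL-60 seeded at 10000 cells/well in RPMI-1640/10% FBS, dosed after 24 h from 100 μM top concentration in 1:1 serial dilutions, incubated 72 h at 37° C. Viability read consecutively by MTT, Alamar Blue and hexosaminidase, normalised to untreated cells; EC50 from variable-slope sigmoidal fit, triplicates.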

[2] = molecular target: A549, epithelial (lung cancer); assay: as above; format: cell-based; conditions: A549 cells, read-out: EC50
Procedure, shortened: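 A549 cells (5000/well, DMEM+10% FBS) were exposed for 72 h at 37° C. to compound, twofold serial dilutions from 100 μM, in triplicate. Viability was read consecutively by MTT (A570), Alamar Blue fluorescence and hexosaminidase activity, normalised to untreated cells. EC50 came from a variable-slope sigmoidal fit.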

A549 cells = assay: Annexin V assay by flow cytometry; format: cell-based; conditions: A549 cells
Experimental: Miltenyi Biotec Annexin V-FITC Kit was used. To detect apoptosis in early stage Phosphatidylserine in plasmatic membrane localization was measured, though the calcium dependent reaction with Annexine V. Annexin V molecules were labelled with different fluorophores (FITC) and analyzed by FACS. To detect apoptosis in late stage DNA-intercalating agents, such Propidium iodide (PI) were used.
Cells were seeded at a density range of 150000-30000 cells/well in 12 wells plates, and incubated at 37° C. in the incubator under CO2 atmosphere. After 24 h, […] A549, HL-60 and MM.1S, at IC30 and/or IC80, with compounds IDP-S09 and IL-09, in cell lines HL-60 and MM.1S with compound IDP-S04 and in cell line A549 with compounds IDP-S02 and IDP-S03. Staurosporine and compound 100258-F4 (Sigma) were used as positive control and reference compound, respectively.

MM1S cells = assay: Subcutaneous xenograft model, tumor volume and survival; format: in vivo, CB17-SCID immunosuppressed mice; conditions: 5 mg/kg i.p. each 12 h; for Tumor Volume: in mm³ (unit assumed)
Experimental: CB17-SCID immunosuppressed mice (female) of 6-7 weeks old housed and handled in a pathogen-free zone. They were purchased from Janvier Labs. All experiments were carried out within the facilities of the University of Salamanca.
Groups Studied: • Control: Medium (PBS) i.p. each 12 hours from Monday to Friday. • S03 i.p. each 12 hours from Monday to Friday (in PBS until end point) • S04 15 mg/kg i.p. each 12 hours from Monday to Friday (in PBS until end point) • S09 5 mg/kg i.p. each 12 hours from Monday to Friday (in PBS until end point)
Subcutaneous xenoaraft model: The mice were shaved on the right flank and anesthetized by inhalation to decrease their mobility, were inoculated subcutaneously with 3×10^6 MM1S cells in 50 μl of RPMI-1640 medium and 50 μl of Corning® Matrigel® Basement Membrane Matrix. When the tumors became palpable (at 30 days), the mice were randomized into the different groups (5 mice in the control group and 4 in the remaining groups) according to the tumor volume. This was estimated by measurements with a caliper of the two tumor diameters and using the following formula of a spheroid: V=(a·b^2·π)/6, where a and b correspond to the longest and shortest diameter, respectively. Tumor volume was monitored three times per week.
Survival evaluation: Mice were sacrificed when their tumor diameter reached 2 cm. The time to reach the endpoint criterion was estimated from the day of treatment start. The statistical differences were evaluated using Kaplan-Meier curves with the log rank test. Statistical analyzes were performed using the SPSS-17.0 program.

RQRRNXLKRAFAXLRDQ-OH [IDP-S03]
EC50 [1]: ~6.6 µM
EC50 [2]: 34 ± 6 µM
apoptosis induction (Annexin V by FACS), in words (A549 cells): apoptosis induction is detected after 4 h at both IC30 and IC80
differences in survival with respect to the control (MM1S cells): 9.5
tumor reduction with respect to the control (MM1S cells; at the end-time (when the control is sacrificed)): 50%
% Tumor Volume (MM1S cells; day of treatment 1 (= 100)): 100%
Tumor Volume (MM1S cells; day of treatment 1): 59.0
% Tumor Volume (MM1S cells; day of treatment 5, relative to day 1): 193.2%
Tumor Volume (MM1S cells; day of treatment 5): 114.1
% Tumor Volume (MM1S cells; day of treatment 10, relative to day 1): 443.9%
Tumor Volume (MM1S cells; day of treatment 10): 262.1
% Tumor Volume (MM1S cells; day of treatment 15, relative to day 1): 661.6%
Tumor Volume (MM1S cells; day of treatment 15): 390.7
% Tumor Volume (MM1S cells; day of treatment 19, relative to day 1): 969.5%
Tumor Volume (MM1S cells; day of treatment 19): 572.6
% Tumor Volume (MM1S cells; day of treatment 26, relative to day 1): 2481.2%
Tumor Volume (MM1S cells; day of treatment 26): 1465.2
Mean survival, Average (MM1S cells; from treatment start until tumor diameter 2 cm): 40.5 days
